The target of the test is human adenosine A2a receptor (Homo sapiens (Human), UniProt P29274). The test is described as follows: A2a receptor binding affinity, [3H]-NECA radioligand binding test. Particulars: [3H]-NECA 37 nM; membrane from HEK-293 cells transfected with human adenosine A2a receptor. The method in brief: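 IC50 values (μM) come from displacement of [3H]-NECA, used at 37 nM final, on human A2a receptor membranes from transfected HEK-293 cells. Incubation lasted one hour at room temperature in Tris/MgCl2/EDTA buffer, pH 7.4; filter-bound radioactivity was counted by scintillation.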
human adenosine A2a receptor, sequence (P29274 whole entry): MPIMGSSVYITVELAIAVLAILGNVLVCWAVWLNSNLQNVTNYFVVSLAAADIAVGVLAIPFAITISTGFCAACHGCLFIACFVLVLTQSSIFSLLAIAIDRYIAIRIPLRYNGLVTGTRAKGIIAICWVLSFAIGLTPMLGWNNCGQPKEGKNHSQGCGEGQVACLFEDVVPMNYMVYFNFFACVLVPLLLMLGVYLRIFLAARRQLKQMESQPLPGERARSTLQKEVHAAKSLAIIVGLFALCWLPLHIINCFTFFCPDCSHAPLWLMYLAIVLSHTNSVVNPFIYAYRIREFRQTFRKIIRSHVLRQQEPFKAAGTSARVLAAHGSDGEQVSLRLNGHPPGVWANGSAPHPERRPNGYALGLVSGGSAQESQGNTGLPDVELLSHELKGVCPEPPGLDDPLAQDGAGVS

A word on the IC50: it is the concentration that gives 50% inhibition.

As to `CCOC[C@H](Nc1nc(N)n2nc(-c3ccco3)nc2n1)C(=O)N1CCN(c2ncccn2)CC1` [Example 307, (S)-2-((7-amino-2-(furan-2-yl)-[1,2,4]triazolo[1,5-a][1,3,5]triazin-5-yl)amino)-3-ethoxy-1-(4-(pyrimidin-2-yl)piperazin-1-yl)propan-1-one], the IC50 is 7 nM. With `CC(F)(F)CN1CCC(C2CCN(C(=O)[C@@H]3CCN3c3cc4nc(-c5ccco5)nn4c(N)n3)CC2)CC1` [Example 379, (S)-(1-(5-amino-2-(furan-2-yl)-[1,2,4]triazolo[1,5-c]pyrimidin-7-yl)azetidin-2-yl)(1′-(2,2-difluoropropyl)-[4,4′-bipiperidin]-1-yl)methanone] the figure was 2 nM; with `CCCCN1CCC(C2CCN(C(=O)[C@@H]3CCN3c3nc(N)n4nc(-c5ccco5)nc4n3)CC2)CC1` [Example 328, (S)-(1-(7-amino-2-(furan-2-yl)-[1,2,4]triazolo[1,5-a][1,3,5]triazin-5-yl)azetidin-2-yl)(1′-butyl-[4,4′-bipiperidin]-1-yl)methanone], 25 nM; with `Nc1nc(N2CCC[C@H]2C(=O)N2CCN(Cc3ccc(F)cc3F)CC2)nc2oc(-c3ccco3)nc12` [Example 41, (S)-(1-(7-amino-2-(furan-2-yl)oxazolo[5,4-d]pyrimidin-5-yl)pyrrolidin-2-yl)(4-(2,4-difluorobenzyl)piperazin-1-yl)methanone], 13 nM. With `CC(C)[C@H](Nc1nc(N)n2nc(-c3ccco3)nc2n1)C(=O)N1CCN(C(=O)CC(C)(C)O)CC1` [Example 369, 1-(4-((7-amino-2-(furan-2-yl)-[1,2,4]triazolo[1,5-a][1,3,5]triazin-5-yl)-L-valyl)piperazin-1-yl)-3-hydroxy-3-methylbutan-1-one] the figure was 14 nM; with `Nc1nc(N[C@@H](Cc2ccccc2)C(=O)N2CCC(COc3ccccc3)CC2)nc2nc(-c3ccco3)nn12` [Example 3, (S)-2-((7-amino-2-(furan-2-yl)-[1,2,4]triazolo[1,5-a][1,3,5]triazin-5-yl)amino)-1-(4-(phenoxymethyl)piperidin-1-yl)-3-phenylpropan-1-one], 1 nM; with `Nc1nc(N[C@@H](Cc2ccccc2)C(=O)N2CCN(Cc3ccc(F)cc3)CC2)nc2nc(-c3ccco3)nn12` [Example 18, (S)-2-((7-amino-2-(furan-2-yl)-[1,2,4]triazolo[1,5-a][1,3,5]triazin-5-yl)amino)-1-(4-(4-fluorobenzyl)piperazin-1-yl)-3-phenylpropan-1-one], 0.125 nM.

Compound `CC(C)[C@H](Nc1nc(N)n2nc(-c3ccco3)nc2n1)C(=O)N1CCN(CCC(F)(F)F)CC1` [Example 367, (S)-2-((7-amino-2-(furan-2-yl)-[1,2,4]triazolo[1,5-a][1,3,5]triazin-5-yl)amino)-3-methyl-1-(4-(3,3,3-trifluoropropyl)piperazin-1-yl)butan-1-one] yielded an IC50 of 14 nM.

Compound `CCC1CCC(N2CCN(C(=O)[C@@H]3CCCN3c3nc(N)n4nc(-c5ccco5)nc4n3)CC2)CC1` (stereo partly drawn) [Example 152, (S)-(1-(7-amino-2-(furan-2-yl)-[1,2,4]triazolo[1,5-a][1,3,5]triazin-5-yl)pyrrolidin-2-yl)(4-(4-ethylcyclohexyl)piperazin-1-yl) methanone] yielded a 50% inhibitory concentration (IC50) of 19 nM. The figure for `Nc1nc(N2CCC[C@H]2C(=O)N2CCN(CC(F)F)CC2)cc2nc(-c3ccco3)nn12` [Example 293, (S)-(1-(5-amino-2-(furan-2-yl)-[1,2,4]triazolo[1,5-c]pyrimidin-7-yl)pyrrolidin-2-yl)(4-(2,2-difluoroethyl)piperazin-1-yl)methanone] is 3 nM. The figure for `COC[C@H](Nc1nc(N)n2nc(-c3ccco3)nc2n1)C(=O)N1CCN(c2nccs2)CC1` [Example 305, (S)-2-((7-amino-2-(furan-2-yl)-[1,2,4]triazolo[1,5-a][1,3,5]triazin-5-yl)amino)-3-methoxy-1-(4-(thiazol-2-yl)piperazin-1-yl)propan-1-one] is 16 nM; for `Nc1nc(N2CCC[C@H]2C(=O)N2CCC(CN3CC(F)C3)CC2)nc2nc(-c3ccco3)nn12` [Example 406, (S)-(1-(7-amino-2-(furan-2-yl)-[1,2,4]triazolo[1,5-a][1,3,5]triazin-5-yl)pyrrolidin-2-yl)(4-((3-fluoroazetidin-1-yl)methyl)piperidin-1-yl)methanone] it is 17 nM. With `Nc1nc(NCC(=O)N2CCN(Cc3ccc(F)cc3F)CC2)nc2nc(-c3ccco3)nn12` [Example 15, 2-((7-amino-2-(furan-2-yl)-[1,2,4]triazolo[1,5-a][1,3,5]triazin-5-yl)amino)-1-(4-(2,4-difluorobenzyl)piperazin-1-yl)ethan-1-one] the figure was 6.02 nM; with `CC(C)(O)CC(=O)N1CCC(C2CCN(C(=O)[C@@H]3CCCN3c3nc(N)n4nc(-c5ccco5)nc4n3)CC2)CC1` [Example 290, 1-(1′-((7-amino-2-(furan-2-yl)-[1,2,4]triazolo[1,5-a][1,3,5]triazin-5-yl)-L-prolyl)-[4,4′-bipiperidin]-1-yl)-3-hydroxy-3-methylbutan-1-one], 2 nM; with `Nc1nc(N[C@H](C(=O)N2CCN(CC(F)(F)F)CC2)C2CCCCC2)nc2nc(-c3ccco3)nn12` [Example 148, (S)-2-((7-amino-2-(furan-2-yl)-[1,2,4]triazolo[1,5-a][1,3,5]triazin-5-yl)amino)-2-cyclohexyl-1-(4-(2,2,2-trifluoroethyl)piperazin-1-yl)ethan-1-one], 8 nM.

Compound `C[C@@H]1CN(Cc2ccc(F)cc2F)CCN1C(=O)[C@@H]1CCCN1c1nc(N)n2nc(-c3ccco3)nc2n1` [Example 51, ((S)-1-(7-amino-2-(furan-2-yl)-[1,2,4]triazolo[1,5-a][1,3,5]triazin-5-yl)pyrrolidin-2-yl)((R)-4-(2,4-difluorobenzyl)-2-methylpiperazin-1-yl)methanone] yielded an IC50 of 13 nM.

In turn, `CCC(F)(F)CN1CCN(C(=O)[C@@H]2CCCN2c2nc(N)n3nc(-c4ccco4)nc3n2)CC1` [Example 225, (S)-(1-(7-amino-2-(furan-2-yl)-[1,2,4]triazolo[1,5-a][1,3,5]triazin-5-yl)pyrrolidin-2-yl)(4-(2,2-difluorobutyl)piperazin-1-yl)methanone] returned an IC50 of 2 nM.

`Nc1nc(N[C@@H](CN2CCOCC2)C(=O)N2CCN(c3ccc(F)cc3F)CC2)nc2nc(-c3ccco3)nn12` [Example 273] gave a half-inhibitory concentration (IC50) of 20 nM. `Nc1nc(N2CCC[C@H]2C(=O)N2CCN(CC(F)(F)F)CC2)nc2nc(-c3ccco3)nn12` [Example 48, (S)-(1-(7-amino-2-(furan-2-yl)-[1,2,4]triazolo[1,5-a][1,3,5]triazin-5-yl)pyrrolidin-2-yl)(4-(2,2,2-trifluoroethyl)piperazin-1-yl)methanone] came in with an IC50 of 13 nM. With `CCCN1CCN(C(=O)[C@@H]2CCCN2c2nc(N)n3nc(-c4ccco4)nc3n2)CC1` [Example 135, (S)-(1-(7-amino-2-(furan-2-yl)-[1,2,4]triazolo[1,5-a][1,3,5]triazin-5-yl)pyrrolidin-2-yl)(4-propylpiperazin-1-yl)methanone] the figure was 24 nM; with `Nc1nc(N[C@@H](CO)C(=O)N2CCN(c3ccc(F)cc3F)CC2)nc2nc(-c3ccco3)nn12` [Example 8, (S)-2-((7-amino-2-(furan-2-yl)-[1,2,4]triazolo[1,5-a][1,3,5]triazin-5-yl)amino)-1-(4-(2,4-difluorophenyl)piperazin-1-yl)-3-hydroxypropan-1-one], 1.92 nM.

Values taken from patent publication US20240217978A1 (CHONG KUN DANG PHARMACEUTICAL CORP., priority 2021, published 2024).
